Measured values published in ChEMBL document CHEMBL5034046, “Discovery of Small-Molecule CD33 Pre-mRNA Splicing Modulators” (ACS Med Chem Lett, 2022).
Values after ≈ are worked out from the molar mass of the structure shown.

Columns and labels:
[1] = Modulation of CD33 pre-mRNA splicing in human K562 cells assessed as induction of exon 2 skipping measured after 16 to 24 hrs by Nano-Luciferase counter screen assay; format: cell-based
[2] = Increase in CD11c level in human THP-1 cell surface incubated for 48 to 72 hrs by high content imaging assay; format: functional
[3] = Modulation of CD33 pre-mRNA splicing in human K562 cells assessed as induction of exon 2 skipping measured after 18 to 24 hrs by Nano-Luciferase reporter assay; format: cell-based
[4] = biological target: Proprotein convertase subtilisin/kexin type 9 (Homo sapiens, UniProt Q8NBP7); test: Inhibition of PCSK9 translation in human THP-1 cells by AlphaLISA assay; format: cell-based
Sequence of Proprotein convertase subtilisin/kexin type 9 (Q8NBP7 31-152 limits assumed): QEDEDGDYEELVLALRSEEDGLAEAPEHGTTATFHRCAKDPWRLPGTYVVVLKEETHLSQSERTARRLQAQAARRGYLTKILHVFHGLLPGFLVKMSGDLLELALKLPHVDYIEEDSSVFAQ
Sequence of Proprotein convertase subtilisin/kexin type 9 (Q8NBP7 153-692 limits assumed): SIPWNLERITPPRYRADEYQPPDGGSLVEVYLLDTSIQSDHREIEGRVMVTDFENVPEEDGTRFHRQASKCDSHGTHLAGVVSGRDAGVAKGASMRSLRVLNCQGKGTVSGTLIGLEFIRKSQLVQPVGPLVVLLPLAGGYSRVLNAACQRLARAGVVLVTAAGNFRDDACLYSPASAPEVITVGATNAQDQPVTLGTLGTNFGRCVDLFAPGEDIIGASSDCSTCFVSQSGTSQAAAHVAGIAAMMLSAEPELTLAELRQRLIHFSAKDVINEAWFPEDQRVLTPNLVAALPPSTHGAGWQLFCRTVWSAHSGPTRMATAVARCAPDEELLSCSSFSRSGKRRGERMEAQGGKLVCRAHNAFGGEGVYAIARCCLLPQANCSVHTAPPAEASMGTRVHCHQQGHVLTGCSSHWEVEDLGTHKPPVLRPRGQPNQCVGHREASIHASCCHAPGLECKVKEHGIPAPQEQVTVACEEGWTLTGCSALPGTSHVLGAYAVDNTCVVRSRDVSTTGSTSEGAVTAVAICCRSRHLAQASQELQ

THP-1 = test: Cytotoxicity against human THP-1 cells assessed as reduction in cell viability by DAPI staining based assay; format: functional
[5] = […] level in human THP-1 cell surface at top concentration incubated for 48 to 72 hrs by high content imaging assay; format: functional; details: time 48-72 hrs
[6] = […] level in human THP-1 cell surface incubated for 48 to 72 hrs by high content imaging assay; format: functional
[7] = Apparent permeability in MDCK cells; format: ADME, cell-based, Canis lupus familiaris; details: dog
[8] = biological target: T1, Alpha-1A adrenergic receptor (Homo sapiens, UniProt P35348); test: Agonist activity at adrenergic alpha-1A receptor (unknown origin) expressed in cells assessed as change in fluorescence measured after 24 hrs by FLIPR assay; format: functional, cell-based
T1 sequence (P35348 whole entry): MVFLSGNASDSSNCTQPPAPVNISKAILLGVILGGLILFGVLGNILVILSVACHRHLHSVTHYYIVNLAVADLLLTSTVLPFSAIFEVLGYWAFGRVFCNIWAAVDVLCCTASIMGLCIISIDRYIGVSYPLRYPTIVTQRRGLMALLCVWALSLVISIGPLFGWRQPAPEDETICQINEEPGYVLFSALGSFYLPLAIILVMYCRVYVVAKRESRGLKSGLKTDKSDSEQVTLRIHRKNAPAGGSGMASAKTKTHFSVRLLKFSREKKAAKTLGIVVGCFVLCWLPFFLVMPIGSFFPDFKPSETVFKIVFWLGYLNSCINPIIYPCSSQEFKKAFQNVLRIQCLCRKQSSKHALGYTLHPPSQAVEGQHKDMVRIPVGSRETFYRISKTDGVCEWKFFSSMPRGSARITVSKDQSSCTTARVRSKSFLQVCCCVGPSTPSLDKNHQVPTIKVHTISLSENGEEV

Histamine H1 receptor = Histamine H1 receptor (Homo sapiens, UniProt P35367); test: Agonist activity at histamine H1 receptor (unknown origin) expressed in cells assessed as change in fluorescence measured after 24 hrs by FLIPR assay; format: functional, cell-based
D(1A) dopamine receptor = D(1A) dopamine receptor (Homo sapiens, UniProt P21728); test: Agonist activity at dopamine D1 receptor (unknown origin) expressed in cells assessed as change in fluorescence measured after 24 hrs by FLIPR assay; format: functional, cell-based
[9] = biological target: T2, Voltage-gated inwardly rectifying potassium channel KCNH2 (Homo sapiens, UniProt Q12809); test: Displacement of [3H]-dofetilide from human ERG
T2 sequence (Q12809 whole entry): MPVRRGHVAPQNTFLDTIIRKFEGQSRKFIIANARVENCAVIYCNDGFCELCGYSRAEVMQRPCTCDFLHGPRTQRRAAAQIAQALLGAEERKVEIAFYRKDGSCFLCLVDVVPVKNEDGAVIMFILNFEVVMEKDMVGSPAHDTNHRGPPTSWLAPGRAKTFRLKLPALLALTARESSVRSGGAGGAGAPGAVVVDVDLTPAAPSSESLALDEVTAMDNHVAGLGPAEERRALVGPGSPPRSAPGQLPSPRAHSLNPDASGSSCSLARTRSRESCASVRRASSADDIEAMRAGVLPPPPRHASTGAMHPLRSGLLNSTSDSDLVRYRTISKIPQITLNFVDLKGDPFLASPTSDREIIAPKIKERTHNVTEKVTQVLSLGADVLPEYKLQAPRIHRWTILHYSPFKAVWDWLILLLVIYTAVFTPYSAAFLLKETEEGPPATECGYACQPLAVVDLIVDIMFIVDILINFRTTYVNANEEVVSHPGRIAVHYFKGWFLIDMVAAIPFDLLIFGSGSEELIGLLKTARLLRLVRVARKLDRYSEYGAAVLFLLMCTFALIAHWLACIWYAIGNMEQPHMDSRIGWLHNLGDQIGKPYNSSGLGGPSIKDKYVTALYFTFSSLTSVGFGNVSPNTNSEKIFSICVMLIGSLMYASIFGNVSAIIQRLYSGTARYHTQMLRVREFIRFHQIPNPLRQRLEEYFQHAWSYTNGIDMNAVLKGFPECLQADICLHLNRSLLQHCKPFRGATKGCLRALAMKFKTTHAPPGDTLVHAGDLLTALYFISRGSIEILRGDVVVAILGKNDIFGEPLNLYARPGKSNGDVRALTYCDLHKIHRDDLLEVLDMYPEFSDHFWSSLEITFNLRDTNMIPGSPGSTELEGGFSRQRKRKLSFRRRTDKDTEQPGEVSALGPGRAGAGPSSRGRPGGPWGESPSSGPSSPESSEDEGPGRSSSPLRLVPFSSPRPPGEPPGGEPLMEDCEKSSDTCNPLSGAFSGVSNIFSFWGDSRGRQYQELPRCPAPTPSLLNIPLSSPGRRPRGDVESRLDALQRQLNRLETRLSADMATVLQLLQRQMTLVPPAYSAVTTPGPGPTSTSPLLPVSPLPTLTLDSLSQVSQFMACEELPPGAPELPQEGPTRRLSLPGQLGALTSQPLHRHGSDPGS

[10] = biological target: 5-hydroxytryptamine receptor 2B (Homo sapiens, UniProt P41595); test: Agonist activity at serotonin 2B receptor (unknown origin) expressed in cells assessed as change in fluorescence measured after 24 hrs by FLIPR assay; format: functional, cell-based
Sequence of 5-hydroxytryptamine receptor 2B (P41595 whole entry): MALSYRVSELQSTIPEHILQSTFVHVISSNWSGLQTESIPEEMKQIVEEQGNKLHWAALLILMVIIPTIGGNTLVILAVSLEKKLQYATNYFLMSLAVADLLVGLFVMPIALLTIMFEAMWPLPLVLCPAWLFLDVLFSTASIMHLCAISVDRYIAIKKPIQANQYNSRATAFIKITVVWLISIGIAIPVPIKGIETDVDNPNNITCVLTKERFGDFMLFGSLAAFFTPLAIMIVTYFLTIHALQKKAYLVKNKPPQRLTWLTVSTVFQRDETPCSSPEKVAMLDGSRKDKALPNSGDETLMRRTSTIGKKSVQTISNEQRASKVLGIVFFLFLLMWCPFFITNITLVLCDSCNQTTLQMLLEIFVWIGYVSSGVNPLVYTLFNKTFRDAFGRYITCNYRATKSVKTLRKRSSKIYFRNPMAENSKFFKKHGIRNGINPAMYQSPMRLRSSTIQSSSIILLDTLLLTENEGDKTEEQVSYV

[11] = biological target: T3, Muscarinic acetylcholine receptor M1 (Homo sapiens, UniProt P11229); test: Antagonist activity at muscarinic M1 receptor (unknown origin) expressed in cells assessed as change in fluorescence measured after 24 hrs by FLIPR assay; format: functional, cell-based
T3 sequence (P11229 whole entry): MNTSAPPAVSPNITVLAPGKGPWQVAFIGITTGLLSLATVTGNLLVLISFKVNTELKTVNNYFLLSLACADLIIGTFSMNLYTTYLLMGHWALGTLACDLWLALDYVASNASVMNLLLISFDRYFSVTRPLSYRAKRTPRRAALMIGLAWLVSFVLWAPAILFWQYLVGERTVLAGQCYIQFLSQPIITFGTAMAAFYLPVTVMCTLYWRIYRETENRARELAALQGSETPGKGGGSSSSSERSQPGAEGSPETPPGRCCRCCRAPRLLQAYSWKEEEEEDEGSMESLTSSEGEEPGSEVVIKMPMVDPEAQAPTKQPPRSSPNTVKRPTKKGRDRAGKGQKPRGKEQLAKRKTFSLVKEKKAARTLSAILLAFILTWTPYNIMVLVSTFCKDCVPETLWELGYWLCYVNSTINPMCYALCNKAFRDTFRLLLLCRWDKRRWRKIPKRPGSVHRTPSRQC

[12] = biological target: Sodium-dependent serotonin transporter (Homo sapiens) (UniProt P31645); test: Inhibition of serotonin transporter (unknown origin) expressed in cells incubated for 30 mins by amine transporter assay; format: cell-based
Sequence of Sodium-dependent serotonin transporter (Homo sapiens) (P31645 whole entry, looked up): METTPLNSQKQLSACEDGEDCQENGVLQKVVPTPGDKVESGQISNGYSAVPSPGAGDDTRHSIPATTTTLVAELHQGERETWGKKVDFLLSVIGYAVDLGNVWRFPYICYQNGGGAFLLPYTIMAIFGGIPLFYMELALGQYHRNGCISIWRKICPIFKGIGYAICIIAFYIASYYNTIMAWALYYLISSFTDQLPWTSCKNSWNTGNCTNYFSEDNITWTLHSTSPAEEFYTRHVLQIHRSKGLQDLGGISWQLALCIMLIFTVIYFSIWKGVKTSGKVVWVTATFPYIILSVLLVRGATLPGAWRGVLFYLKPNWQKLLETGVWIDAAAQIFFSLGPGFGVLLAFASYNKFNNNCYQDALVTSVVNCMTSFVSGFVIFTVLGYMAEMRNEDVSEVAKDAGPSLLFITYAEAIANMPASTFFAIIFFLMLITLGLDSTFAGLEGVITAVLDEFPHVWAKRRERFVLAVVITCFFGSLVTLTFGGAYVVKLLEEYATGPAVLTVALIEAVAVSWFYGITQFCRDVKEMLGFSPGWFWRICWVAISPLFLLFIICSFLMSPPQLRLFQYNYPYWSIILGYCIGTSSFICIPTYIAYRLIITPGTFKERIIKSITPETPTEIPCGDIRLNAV

[13] = biological target: 3',5'-cyclic-AMP phosphodiesterase 4D (Homo sapiens, UniProt Q08499); test: Inhibition of PDE4D3 (unknown origin) assessed as conversion of cAMP to AMP measured after 30 mins by YSi scintillation proximity assay
[14] = biological target: cGMP-specific 3',5'-cyclic phosphodiesterase (Homo sapiens, UniProt O76074); test: Inhibition of PDE5A1 (unknown origin) assessed as conversion of cAMP to AMP measured after 30 mins by YSi scintillation proximity assay
Cannabinoid receptor 1 = Cannabinoid receptor 1 (Homo sapiens, UniProt P21554); test: Agonist activity at cannabinoid receptor 1 (unknown origin) expressed in cells measured after 90 mins by beta-arrestin recruitment assay; format: functional, cell-based
Sequence of Cannabinoid receptor 1 (P21554 whole entry): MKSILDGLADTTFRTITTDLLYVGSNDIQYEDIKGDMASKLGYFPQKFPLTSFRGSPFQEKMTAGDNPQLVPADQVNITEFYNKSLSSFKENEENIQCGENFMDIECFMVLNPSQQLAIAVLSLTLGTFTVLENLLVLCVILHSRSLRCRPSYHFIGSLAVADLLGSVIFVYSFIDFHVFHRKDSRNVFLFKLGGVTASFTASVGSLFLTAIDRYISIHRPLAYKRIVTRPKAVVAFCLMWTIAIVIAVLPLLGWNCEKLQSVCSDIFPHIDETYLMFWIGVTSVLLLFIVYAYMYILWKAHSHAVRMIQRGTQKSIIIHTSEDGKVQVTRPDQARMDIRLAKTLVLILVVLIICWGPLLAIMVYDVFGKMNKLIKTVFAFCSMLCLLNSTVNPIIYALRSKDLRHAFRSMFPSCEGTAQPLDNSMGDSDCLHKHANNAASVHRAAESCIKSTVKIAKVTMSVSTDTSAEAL

[15] = Solubility of compound at pH 7.4; format: physicochemical; details: buffer
[16] = Cytotoxicity against human THLE cells by ATP depletion assay; format: cell-based
[17] = biological target: T2, Voltage-gated inwardly rectifying potassium channel KCNH2; test: Inhibition of human ERG
[18] = Inhibition of PDE3A1 (unknown origin) assessed as conversion of cAMP to AMP measured after 30 mins by YSi scintillation proximity assay; parameters: species or system Homo sapiens
[19] = biological target: Sodium-dependent noradrenaline transporter (Homo sapiens) (UniProt P23975); test: Inhibition of norepinephrine transporter (unknown origin) expressed in cells incubated for 60 mins by amine transporter assay; format: cell-based
Sequence of Sodium-dependent noradrenaline transporter (Homo sapiens) (P23975 whole entry): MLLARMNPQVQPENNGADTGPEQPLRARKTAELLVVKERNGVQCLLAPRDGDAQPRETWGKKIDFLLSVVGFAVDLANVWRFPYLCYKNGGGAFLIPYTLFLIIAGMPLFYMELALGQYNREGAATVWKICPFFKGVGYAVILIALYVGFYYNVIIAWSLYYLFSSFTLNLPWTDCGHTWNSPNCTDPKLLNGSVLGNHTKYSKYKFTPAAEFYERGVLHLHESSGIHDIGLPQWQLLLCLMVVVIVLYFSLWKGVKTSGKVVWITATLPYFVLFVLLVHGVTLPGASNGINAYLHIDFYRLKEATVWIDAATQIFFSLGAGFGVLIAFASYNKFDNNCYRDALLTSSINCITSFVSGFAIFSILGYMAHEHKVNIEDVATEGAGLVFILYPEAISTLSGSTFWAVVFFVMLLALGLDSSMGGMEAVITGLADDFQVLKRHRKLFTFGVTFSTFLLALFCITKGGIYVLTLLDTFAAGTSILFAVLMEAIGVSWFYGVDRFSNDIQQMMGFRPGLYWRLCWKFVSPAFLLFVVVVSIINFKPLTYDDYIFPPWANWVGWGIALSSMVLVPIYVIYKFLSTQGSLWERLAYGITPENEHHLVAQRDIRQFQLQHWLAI

[20] = biological target: Bromodomain-containing protein 4 (Homo sapiens, UniProt O60885); test: Inhibition of His-tagged BRD4 (unknown origin) using tetra-acetylated histone H4 peptide as substrate by fluorescent polarization binding assay
[21] = biological target: Beta-2 adrenergic receptor (Homo sapiens, UniProt P07550); test: Agonist activity at adrenergic beta2 receptor (unknown origin) expressed in cells measured after 90 mins by beta-arrestin recruitment assay; format: functional, cell-based
[22] = biological target: Sodium-dependent dopamine transporter (Homo sapiens) (UniProt Q01959); test: Inhibition of dopamine transporter (unknown origin) expressed in cells incubated for 60 mins by amine transporter assay; format: cell-based
Sequence of Sodium-dependent dopamine transporter (Homo sapiens) (Q01959 whole entry): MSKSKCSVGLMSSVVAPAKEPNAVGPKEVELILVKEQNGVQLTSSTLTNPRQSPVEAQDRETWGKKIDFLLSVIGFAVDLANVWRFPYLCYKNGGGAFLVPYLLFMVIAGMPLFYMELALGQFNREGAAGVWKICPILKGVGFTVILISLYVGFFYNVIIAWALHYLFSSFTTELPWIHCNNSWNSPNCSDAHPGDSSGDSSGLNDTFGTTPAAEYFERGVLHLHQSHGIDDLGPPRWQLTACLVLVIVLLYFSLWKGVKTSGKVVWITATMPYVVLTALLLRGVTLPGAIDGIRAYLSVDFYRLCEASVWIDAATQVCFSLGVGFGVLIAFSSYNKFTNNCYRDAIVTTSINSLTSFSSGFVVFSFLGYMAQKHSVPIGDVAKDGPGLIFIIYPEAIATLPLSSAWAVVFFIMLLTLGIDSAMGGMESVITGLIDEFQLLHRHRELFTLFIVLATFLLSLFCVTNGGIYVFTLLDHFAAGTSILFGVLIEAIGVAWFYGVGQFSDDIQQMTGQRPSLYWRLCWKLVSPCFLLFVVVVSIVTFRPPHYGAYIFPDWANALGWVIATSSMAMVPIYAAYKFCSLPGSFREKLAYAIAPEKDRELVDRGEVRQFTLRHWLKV

[23] = Distribution coefficient, logD of compound at pH 7.4 by shake flask method; format: physicochemical; details: octanol/water
K562 = test: Modulation of CD33 pre-mRNA splicing in human K562 cells assessed as induction of exon 2 skipping at 25 uM measured after 18 to 24 hrs by Nano-Luciferase reporter assay; format: cell-based; details: filed as modulator, time 18-24 hrs

EC50 [2] [µM]	EC50 [3] [µM]	IC50 [4] [µM]	EC50 [6] [µM]	Compound	EC50 [1] [µM]	EC50 (THP-1) [µM]	Emax [5] [%]	Emax (K562) [%]	also measured
> 30	> 10	2.8	> 30	Cc1cncc(-c2ccc(C(=O)N(c3ncccc3Cl)[C@@H]3CCCNC3)cc2)n1	> 10	> 30	-32	–	–
–	0.58	1.3	–	O=C(c1ccc(-c2cnn3cccnc23)cc1)N(c1nccc2ccccc12)[C@@H]1CCCNC1	> 10	–	–	206	–
> 50	> 10	3	39	CN(C)c1cncc(-c2ccc(C(=O)N(c3ncccc3Cl)[C@@H]3CCCNC3)cc2)n1	> 10	> 50	-41	–	–
–	1.4	–	–	Cc1cnc2c(c1)nnn2-c1ccc(C(=O)N(c2ncccc2Cl)[C@@H]2CCCNC2)cc1	> 10	–	–	80	–
> 10	5.6	3.1	6	CNc1cncc(-c2ccc(C(=O)N(c3ncccc3Cl)[C@@H]3CCCNC3)cc2)n1	> 10	> 10	-25	100	–
> 50	3.7	2.2	33	Cc1cccnc1N(C(=O)c1ccc(-c2cnn3cccnc23)cc1)[C@@H]1CCCNC1	> 10	> 50	-41	145	–
–	4.4	0.9	–	Cc1ccc2nnn(-c3ccc(C(=O)N(c4ncccc4Cl)[C@@H]4CCCNC4)cc3)c2n1	> 25	–	–	155	–
–	4.5	–	–	O=C(c1ccc(-n2nnc3cccnc32)cc1)N(c1ncccc1Cl)[C@@H]1CCCNC1	> 10	–	–	100	–
> 50	3.6	2.5	8.3	COC(=O)c1c(-c2ccc(C(=O)N(c3ncccc3C)[C@@H]3CCCNC3)cc2)cnn1C	> 10	> 50	-35	220	–

Compound	EC50 [2] [µM]	EC50 [3] [µM]	IC50 [4] [µM]	EC50 [6] [µM]	EC50 [1] [µM]	EC50 (THP-1) [µM]	Emax [5] [%]	Emax (K562) [%]	also measured
Cc1cnc2c(-c3ccc(C(=O)N(c4ncccc4C)[C@@H]4CCCNC4)cc3F)cnn2c1	> 10	7.8	1.7	2.1	> 10	> 10	-43	100	Papp [7]: 10.1 ×10⁻⁶ cm/s; EC50 [8]: > 10 µM; EC50 (Histamine H1 receptor): > 10 µM; EC50 (D(1A) dopamine receptor): > 10 µM; Ki [9]: 7.2 µM; EC50 [10]: > 10 µM; Ki [11]: 0.4 µM; Kb [12]: > 10 µM; IC50 [13]: 39 µM; IC50 [14]: > 200 µM; EC50 (Cannabinoid receptor 1): > 10 µM; solubility [15]: 460 µM (≈ 204 µg/mL); IC50 [16]: 204 µM; EC50 [17]: 12.7 µM; IC50 [18]: 99 µM; Kb [19]: > 10 µM; IC50 [20]: > 25 µM; EC50 [21]: > 10 µM; Kb [22]: > 10 µM; logD [23]: 1.1
